≈ marks a conversion by molar mass, not a printed value.
Test: Solubility determination (gravimetric, saturated aqueous samples)
Format: physicochemical
Description: Es wurden 15 mL gesättigter wässriger Proben mit Niederschlag in 20 mL-Fläschchen mit dem Acetylsalicylsäure-Nicotinsäureamid-Co-Kristall (1:1), ASS und NIC angesetzt. Die Proben wurden bei Raumtemperatur mit einem Magnetrührer homogenisiert. Nach 1 h und 2 h werden von jeder Probe 4-mal ca. 1 mL Lösung entnommen (4-fach Bestimmung) und durch ein Vorspritzfilter in ein leeres 4 mL Fläschchen überführt. Die Fläschchen werden dann bis zur Verdampfung des Lösemittels offen stehengelassen. Die Fläschchen wurden leer, mit der gesättigten Lösung und nach dem Verdampfen gewogen. Die Löslichkeit in Masseprozent ergibt sich über die Differenz aus Gewicht nach dem Verdampfen und dem Leegewicht.

Row | Compound | ASS-Löslichkeit gesteigert um einen Faktor (ASS in co-crystal (ASS:NA 1:1) versus pure ASS, Fig. 7, after 1 h) | Löslichkeit Nach 1 h (water, 1 h) | Löslichkeit Nach 1 h (ASS im Co-Kristall) (water, 1 h) | Löslichkeit Nach 2 h (water, 2 h) | Löslichkeit Nach 2 h (ASS im Co-Kristall) (water, 2 h) | solubility thermodynamic at 1 h (water) | solubility thermodynamic at 2 h (water)
1 | Acetylsalicylsäure-Nicotinsäureamid-Co-Kristall | ca. 2,5 | 1,768 ω % | 1,054 ω % | 1,777 ω % | 1,059 ω % | – | –
2 | CC(=O)Oc1ccccc1C(=O)O [Acetylsalicylsäure, 2-Acetoxybenzoesäure, reference compound] | – | – | – | – | – | 4140 µg/mL (≈ 23 mM) | 4260 µg/mL (≈ 23.6 mM)

Source: patent publication EP4509497A1, “METHOD FOR PRODUCING ACETYLSALICYLIC ACID NICOTINAMIDE COCRYSTALS AND ACETYLSALICYLIC ACID NICOTINAMIDE COCRYSTALS WITH IMPROVED SOLUBILITY” (Ruhr-Universität Bochum, priority 2023, dated 2025)
